Converted amounts (≈) assume the structure as drawn. Read-outs that look alike come from different tables or passages of the source.
Assays:
[1] = tested on: C. freundii No. 7; experiment: MIC by agar plate dilution method; assay type: cell-based; conditions: Citrobacter freundii
Procedure: (§1) The minimum inhibitory concentrations (MIC: μg/ml) of the compounds of the present invention against various microorganisms were measured by an agar plate dilution method (inoculum size: 10^6 CFU/ml) by using Sensitivity Disk Agar (Nissui) in comparison with Cefotaxime and Ceftazidime as comparative compounds.
(§2) Minimum Inhibitory Concentration (μg/ml; 10^6 CFU/ml)

[2] = tested on: A. calcoaceticus No. 14; experiment: MIC by agar plate dilution method; assay type: cell-based; conditions: Acinetobacter calcoaceticus
Procedure: as §1, §2

[3] = tested on: E. coli ML1410/Rte16; experiment: MIC by agar plate dilution method; assay type: cell-based; conditions: Escherichia coli, ML1410/RTE16, read-out: Minimum Inhibitory Concentration, E. coli ML1410/Rte16; 10^6 CFU/ml
Procedure: as §1, §2

[4] = tested on: P. aeruginosa AKR17; experiment: MIC by agar plate dilution method; assay type: cell-based; conditions: Pseudomonas aeruginosa
Procedure: as §1, §2

[5] = tested on: P. aeruginosa AK109; experiment: MIC by agar plate dilution method; assay type: cell-based; conditions: Pseudomonas aeruginosa
Procedure: as §1, §2

[6] = tested on: P. vulgaris OB1043; experiment: MIC by agar plate dilution method; assay type: cell-based; conditions: Proteus vulgaris
Procedure: as §1, §2

[7] = tested on: P. vulgaris No. 33; experiment: MIC by agar plate dilution method; assay type: cell-based; conditions: Proteus vulgaris
Procedure: as §1, §2

[8] = tested on: E. coli CSH; experiment: MIC by agar plate dilution method; assay type: cell-based; conditions: Escherichia coli, 10^6 CFU/ml, read-out: Minimum Inhibitory Concentration
Procedure: as §1, §2

[9] = tested on: S. aureus NIHJJC-1; experiment: MIC by agar plate dilution method; assay type: cell-based; conditions: Staphylococcus aureus
Procedure: as §1, §2

[10] = tested on: E. coli NIHJJC-2; experiment: MIC by agar plate dilution method; assay type: cell-based; conditions: Escherichia coli
Procedure: as §1, §2

[11] = tested on: E. cloaceae Nek 39; experiment: MIC by agar plate dilution method; assay type: cell-based; conditions: read-out: Minimum Inhibitory Concentration
Procedure: as §1, §2

[12] = tested on: E. coli W3630/Rms212; experiment: MIC by agar plate dilution method; assay type: cell-based; conditions: Escherichia coli, W3630/RMS212, read-out: Minimum Inhibitory Concentration, E. coli W3630/Rms212; 10^6 CFU/ml
Procedure: as §1, §2

[13] = tested on: S. marcescens No. 16-2; experiment: MIC by agar plate dilution method; assay type: cell-based; conditions: Serratia marcescens
Procedure: as §1, §2

[14] = tested on: E. coli C/Rms149; experiment: MIC by agar plate dilution method; assay type: cell-based; conditions: Escherichia coli, read-out: Minimum Inhibitory Concentration, E. coli C/Rms149; 10^6 CFU/ml
Procedure: as §1, §2

[15] = tested on: E. coli CSH2; experiment: MIC by agar plate dilution method; assay type: cell-based; conditions: Escherichia coli, 10^6 CFU/ml, read-out: Minimum Inhibitory Concentration
Procedure: as §1, §2

[16] = tested on: K. pneumoniae No. 42; experiment: MIC by agar plate dilution method; assay type: cell-based; conditions: Klebsiella pneumoniae
Procedure: as §1, §2

[17] = tested on: P. mirabilis JY10; experiment: MIC by agar plate dilution method; assay type: cell-based; conditions: Proteus mirabilis
Procedure: as §1, §2

[18] = tested on: S. aureus JS-1; experiment: MIC by agar plate dilution method; assay type: cell-based; conditions: Staphylococcus aureus
Procedure: as §1, §2

[19] = tested on: E. coli W3630/Rms213; experiment: MIC by agar plate dilution method; assay type: cell-based; conditions: Escherichia coli, W3630/RMS213, read-out: Minimum Inhibitory Concentration, E. coli W3630/Rms213; 10^6 CFU/ml
Procedure: as §1, §2

[20] = tested on: P. cepacia 23; experiment: MIC by agar plate dilution method; assay type: cell-based
Procedure: as §1, §2

[21] = tested on: E. coli NIHJ; experiment: bioautography (TLC); assay type: cell-based; conditions: TLC Merck silica gel F254, E. coli NIHJ
Procedure: 2.5 mg of the compound obtained in Example 4 (C) was suspended in 0.5 ml of methanol, and 35 μl of concentrated aqueous ammonia was added thereto. The mixture was left to stand at room temperature for 1 hour. […] The fraction of this peak was separated and freeze-dried to obtain 1 mg of the above identified compound.

[22] = tested on: P. maltophilia IID 1275; experiment: MIC by agar plate dilution method; assay type: cell-based; conditions: Stenotrophomonas maltophilia
Procedure: as §1, §2

[23] = tested on: Gram-positive bacteria and Gram-negative bacteria; conditions: background, Antimicrobial Agents and Chemotherapy; cited from earlier work
[24] = C. freundii No. 7, 10^6 CFU/ml, read-out: Minimum Inhibitory Concentration
[25] = NO.14, A. calcoaceticus No. 14, 10^6 CFU/ml, read-out: Minimum Inhibitory Concentration
[26] = AKR17, P. aeruginosa AKR17, 10^6 CFU/ml, read-out: Minimum Inhibitory Concentration
[27] = AK109, P. aeruginosa AK109, 10^6 CFU/ml, read-out: Minimum Inhibitory Concentration
[28] = OB1043, P. vulgaris OB1043, 10^6 CFU/ml, read-out: Minimum Inhibitory Concentration
[29] = P. vulgaris No. 33, 10^6 CFU/ml, read-out: Minimum Inhibitory Concentration
[30] = NIHJJC1, S. aureus NIHJJC-1, 10^6 CFU/ml, read-out: Minimum Inhibitory Concentration
[31] = NIHJJC2, E. coli NIHJJC-2, 10^6 CFU/ml, read-out: Minimum Inhibitory Concentration
[32] = E. cloaceae Nek 39, 10^6 CFU/ml
[33] = NO.162, S. marcescens No. 16-2, 10^6 CFU/ml, read-out: Minimum Inhibitory Concentration
[34] = K. pneumoniae No. 42, 10^6 CFU/ml, read-out: Minimum Inhibitory Concentration
[35] = P. mirabilis JY10, 10^6 CFU/ml, read-out: Minimum Inhibitory Concentration
[36] = JS1, S. aureus JS-1, 10^6 CFU/ml, read-out: Minimum Inhibitory Concentration
[37] = Burkholderia cepacia, P. cepacia 23, 10^6 CFU/ml, read-out: Minimum Inhibitory Concentration

| Structure (SMILES) | MIC [1, 24] | MIC [2, 25] | MIC [3] | MIC [4, 26] | MIC [5, 27] | MIC [6, 28] | MIC [7, 29] | MIC [8] | MIC [9, 30] | MIC [10, 31] | MIC [11, 32] | MIC [12] | MIC [13, 33] | MIC [14] | MIC [15] | MIC [16, 34] | MIC [17, 35] | MIC [18, 36] | MIC [19] | MIC [20, 37] | also measured |
| --- | --- | --- | --- | --- | --- | --- | --- | --- | --- | --- | --- | --- | --- | --- | --- | --- | --- | --- | --- | --- | --- |
| CO/N=C(\C(=O)NC1C(=O)N2C(C(=O)[O-])=C(C[N+]3(C)CCc4cc(OC(C)=O)c(OC(C)=O)cc4C3)CSC12)c1csc(N)n1 (centres unmarked) [Ex. 4-C, 7-[(Z)-2-(2-aminothiazol-4-yl)-2-methoxyiminoacetamido]-3-(6,7-diacetoxy-2-methyl-1,2,3,4-tetrahydro-2-isoquinolinium)methyl-3-cephem-4-carboxylate] | 6.25 µg/mL (≈ 9.49 µM) | 0.39 µg/mL (≈ 0.592 µM) | 0.1 µg/mL (≈ 0.152 µM) | 1.56 µg/mL (≈ 2.37 µM) | 0.1 µg/mL (≈ 0.152 µM) | 1.56 µg/mL (≈ 2.37 µM) | 0.2 µg/mL (≈ 0.304 µM) | 1.56 µg/mL (≈ 2.37 µM) | 3.12 µg/mL (≈ 4.74 µM) | < 0.05 µg/mL | ≤ 0.05 µg/mL | ≤ 0.05 µg/mL | 6.25 µg/mL (≈ 9.49 µM) | ≤ 0.1 µg/mL | 0.1 µg/mL (≈ 0.152 µM) | 0.2 µg/mL (≈ 0.304 µM) | 0.78 µg/mL (≈ 1.18 µM) | 25 µg/mL (≈ 38 µM) | 1.56 µg/mL (≈ 2.37 µM) | 0.78 µg/mL (≈ 1.18 µM) | antibacterial spot in bioautography [21]: the antibacterial spot of the starting material was at Rf=0.4 |
| CO/N=C(\C(=O)N[C@@H]1C(=O)N2C(C(=O)O)=C(COC(C)=O)CS[C@H]12)c1csc(N)n1 [Cefotaxime, reference compound] | 0.39 µg/mL (≈ 0.856 µM) | 25 µg/mL (≈ 54.9 µM) | ≤ 0.05 µg/mL | > 25 µg/mL | 6.25 µg/mL (≈ 13.7 µM) | 0.39 µg/mL (≈ 0.856 µM) | ≤ 0.05 µg/mL | 0.1 µg/mL (≈ 0.22 µM) | 0.78 µg/mL (≈ 1.71 µM) | ≤ 0.05 µg/mL | 0.78 µg/mL (≈ 1.71 µM) | ≤ 0.05 µg/mL | 6.25 µg/mL (≈ 13.7 µM) | ≤ 0.05 µg/mL | ≤ 0.05 µg/mL | 0.1 µg/mL (≈ 0.22 µM) | ≤ 0.05 µg/mL | 6.25 µg/mL (≈ 13.7 µM) | 0.2 µg/mL (≈ 0.439 µM) | 6.25 µg/mL (≈ 13.7 µM) | MIC ([22]; IID1275, P. maltophilia IID 1275, 10^6 CFU/ml, read-out: Minimum Inhibitory Concentration): > 25 µg/mL; antibacterial activities [23]: relatively poor antibacterial activities against Gram-positive bacteria, and excellent activities against Gram-negative bacteria, particularly against Enterobacteriacae |
| CC(C)(O/N=C(\C(=O)N[C@@H]1C(=O)N2C(C(=O)[O-])=C(C[n+]3ccccc3)CS[C@H]12)c1csc(N)n1)C(=O)O [Ceftazidime, reference compound] | – | – | 0.2 µg/mL (≈ 0.366 µM) | – | – | – | – | ≤ 0.1 µg/mL | – | – | – | 0.2 µg/mL (≈ 0.366 µM) | – | 0.2 µg/mL (≈ 0.366 µM) | ≤ 0.1 µg/mL | – | – | – | 0.2 µg/mL (≈ 0.366 µM) | – | MIC ([1]; NO.7, read-out: Minimum Inhibitory Concentration): 1.56 µg/mL (≈ 2.85 µM); MIC ([2]; NO.14, read-out: Minimum Inhibitory Concentration): 6.25 µg/mL (≈ 11.4 µM); MIC ([4]; AKR17, read-out: Minimum Inhibitory Concentration): > 100 µg/mL; MIC ([5]; AK109, read-out: Minimum Inhibitory Concentration): 1.56 µg/mL (≈ 2.85 µM); MIC ([22]; IID1275, read-out: Minimum Inhibitory Concentration): > 25 µg/mL; MIC ([6]; OB1043, read-out: Minimum Inhibitory Concentration): ≤ 0.1 µg/mL; MIC ([7]; NO.33, read-out: Minimum Inhibitory Concentration): ≤ 0.1 µg/mL; MIC ([9]; NIHJJC1, read-out: Minimum Inhibitory Concentration): 3.12 µg/mL (≈ 5.71 µM); MIC ([10]; NIHJJC2, read-out: Minimum Inhibitory Concentration): ≤ 0.1 µg/mL; MIC [11]: 0.78 µg/mL (≈ 1.43 µM); MIC ([13]; NO.162, read-out: Minimum Inhibitory Concentration): 1.56 µg/mL (≈ 2.85 µM); MIC ([16]; NO.42, read-out: Minimum Inhibitory Concentration): 0.39 µg/mL (≈ 0.714 µM); MIC ([17]; JY10, read-out: Minimum Inhibitory Concentration): ≤ 0.1 µg/mL; MIC ([18]; JS1, read-out: Minimum Inhibitory Concentration): 50 µg/mL (≈ 91.5 µM); MIC ([20]; Burkholderia cepacia, 23, read-out: Minimum Inhibitory Concentration): 0.39 µg/mL (≈ 0.714 µM); antibacterial activities [23]: the most excellent cephalosporin derivative against Gram-positive bacteria including Pseudomonas aeruginosa and Acinetobacter |
